pIC50: −log10 of the molar value.
How the values were obtained:
[1] = target: Ribosomal protein S6 kinase beta-1 (Homo sapiens, UniProt P23443, T412E); experiment: P70S6K Enzyme Assay: P70S6K inhibitor compounds are diluted and plated in 96 well plates. A reaction mixture including the following components is then added to the compound plate to initiate the enzyme reaction; P70S6K (3 nM, T412E mutant, Millipore) is mixed with 24 uM ATP in an assay buffer containing 100 mM Hepes (pH 7.5), 5 mM MgCl2, 1 mM DTT, 0.015% Brij and 1 uM of the substrate peptide FITC-AHA-[…]-OH (derived from the S6 ribosomal protein sequence, FITC=fluorescein isothiocyanate, AHA=6-aminohexanoic acid). The reaction is incubated for 90 min at 25° C., before the addition of 10 mM EDTA to stop the reaction. The proportion of substrate and product (phosphorylated) peptide is analysed on a Caliper Life Sciences Lab Chip 3000, using a pressure of -1.4 psi, and upstream and downstream voltages of -3000 and -700 respectively. Product peaks are resolved before substrate peaks on the resulting chromatograms.
[2] = target: RAC-alpha serine/threonine-protein kinase (Homo sapiens, UniProt P31749); experiment: AKT Enzyme Assay: A TTP Mosquito liquid handling instrument is used to place […] of the appropriate concentration of inhibitor in 100% DMSO (for a dose response curve calculation) into each well of a 384-well plate. To this reaction components are added to a final volume of 12.50 0.1 ng/uL His-AKT (Full Length), (Invitrogen, Part # P2999, Lot #641228C). 160 uM ATP (Fluka, 02055) 1 mM DTT (Sigma, D0632) 1 mM MgCl2 (Sigma, M1028) 1 uM substrate peptide (sequence FITC-AHA-[…]-NH2), synthesized by Tufts Peptide Synthesis service. 100 mM HEPES pH 7.5 (Calbiochem, 391338) 0.015% Brij-35 (Sigma, B4184)The reaction is incubated for 90 min at 25° C, and then stopped by the addition of 70 ul of Stop buffer (100 mM HEPES pH 7.5, 0.015% Brij-35, 10 mM EDTA (Sigma, E7889)).The plate is read on a Caliper LC 3000 in an Off-Chip mobility shift assay format, using the following parameters for a 12-sipper chip: screening pressure -2.3 psi, upstream voltage -500, and downstream voltage -3000.
Chain of RAC-alpha serine/threonine-protein kinase (P31749 whole entry): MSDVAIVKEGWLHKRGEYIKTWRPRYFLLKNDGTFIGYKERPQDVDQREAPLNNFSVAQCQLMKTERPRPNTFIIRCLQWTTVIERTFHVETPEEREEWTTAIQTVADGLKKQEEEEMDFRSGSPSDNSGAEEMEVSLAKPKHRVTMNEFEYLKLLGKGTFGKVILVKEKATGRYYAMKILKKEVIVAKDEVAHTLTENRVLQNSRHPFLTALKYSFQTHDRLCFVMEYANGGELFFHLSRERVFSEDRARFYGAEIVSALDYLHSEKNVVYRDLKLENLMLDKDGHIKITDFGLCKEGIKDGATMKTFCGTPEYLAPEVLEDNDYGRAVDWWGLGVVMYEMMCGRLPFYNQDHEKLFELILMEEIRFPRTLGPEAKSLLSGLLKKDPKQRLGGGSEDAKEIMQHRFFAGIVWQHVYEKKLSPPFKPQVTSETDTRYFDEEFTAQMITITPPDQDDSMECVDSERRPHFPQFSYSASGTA

Chain of Ribosomal protein S6 kinase beta-1 (P23443 whole entry T412E): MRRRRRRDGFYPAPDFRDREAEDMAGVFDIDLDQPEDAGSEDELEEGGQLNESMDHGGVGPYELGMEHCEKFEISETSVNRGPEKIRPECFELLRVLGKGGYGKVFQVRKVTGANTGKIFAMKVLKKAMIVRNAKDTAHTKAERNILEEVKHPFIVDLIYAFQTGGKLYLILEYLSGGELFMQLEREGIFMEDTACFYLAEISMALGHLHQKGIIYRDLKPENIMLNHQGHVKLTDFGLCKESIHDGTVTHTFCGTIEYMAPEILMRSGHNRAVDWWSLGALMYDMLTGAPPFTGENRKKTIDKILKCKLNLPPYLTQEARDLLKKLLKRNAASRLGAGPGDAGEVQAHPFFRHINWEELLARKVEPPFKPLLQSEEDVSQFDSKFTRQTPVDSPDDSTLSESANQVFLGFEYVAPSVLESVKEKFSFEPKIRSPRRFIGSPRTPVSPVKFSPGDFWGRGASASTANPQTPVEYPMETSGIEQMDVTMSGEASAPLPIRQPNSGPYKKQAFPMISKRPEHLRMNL

CN(Cc1ccc(Cl)c(Cl)c1)C1CCN(c2ccc(C(N)=O)c3ncncc23)C1 (racemic)
pIC50 [1]: 6.24

NC(=O)c1ccc(NC(=O)C2CNC[C@@H]2c2cccc(F)c2)c2cccnc12 (some centres not stated)
pIC50 [1]: < 6.00

NC(=O)c1ccc(N2CCC(N)(C(=O)Nc3ccc(F)c(C(F)(F)F)c3)C2)c2cncnc12 (racemic)
pIC50 [1]: 6.57

CNC[C@@H](Nc1ccc(C(N)=O)c2ncncc12)c1cccc(F)c1
pIC50 [1]: < 6.00

NC(=O)c1ccc(NCC(c2ccccc2)N2CCNCC2)c2cncnc12 (racemic)
pIC50 [1]: 6.77

NC(=O)c1ccc(NCc2ccccc2)c2cncnc12
pIC50 [1]: 6.16 | pIC50 [2]: 4.24

NC(=O)c1ccc(N2CCN(c3ccc(Cl)c(Cl)c3)CC2)c2cncnc12
pIC50 [1]: < 4.00 | pIC50 [2]: < 4.00

NC(=O)c1ccc(N2CCC(NCc3ccc(Cl)c(Cl)c3)C2)c2cncnc12 (racemic)
pIC50 [1]: 6.31

NC(=O)c1ccc(NCCc2ccc(Cl)c(Cl)c2)c2cncnc12
pIC50 [1]: 7.01 | pIC50 [2]: < 4.00

From ChEMBL document CHEMBL3886157, “Heterocyclic carboxamides as modulators of kinase activity” (2015)
